From patent US20230116707A1, “DETECTION OF NOVEL DEGRADATION-RELATED INTERACTIONS” (Orionis Biosciences, Inc., priority 2019, published 2023)
Each block holds one compound with its values, some of them ahead of it.

What was measured:
Format in all cases: cell-based
[1] = molecular target: T1, CRBN with proteins of a human ORF(eome) cDNA library (Homo sapiens, UniProt Q96SW2); assay: MAPPIT-derivative cell microarray screen of a human ORF(eome) cDNA library with CRBN bait (pSEL-CRBN); conditions: CC-220 10 μM; four ORF cDNAs confirmed in dose-response
T1 construct: expressed in transfected cells; host or cells: HEK293T
Method: In order to identify ligand-induced CRBN substrates, or neosubstrates, a MAPPIT cell microarray screen was performed using the procedure described in Lievens, et al. “Proteome-scale binary interactomics in human cells.” Molecular & Cellular Proteomics 15.12 (2016): 3624-3639. […] These transfected cells were then added to microarray screening plates containing a prey gp130 fusion expression plasmid collection covering over 15,000 ORFs. Each spot in the microarray contained a different gp130-ORF fusion expression plasmid, as well as a STAT3-responsive fluorescence protein-encoding reporter plasmid. CRBN bait transfected cells landing and attaching on these spots therefore become transfected as well with the gp130-ORF prey plasmid and the reporter plasmid, resulting in a different CRBN-ORF combination being tested in the cells on every different microarray spot. Twenty-four hours after transfection cells were differentially stimulated with erythropoietin with and without the CRBN ligand CC-220 (10 μM), and reporter signal (GFP-like fluorescence reporter) was read out 48 hours later.

CRBN-GSPT2 interaction = molecular target: T2, CRBN-GSPT2 interaction (Homo sapiens, UniProt Q96SW2); assay: MAPPIT-derivative assay, CRBN bait receptor fusion (pSEL-CRBN) with gp130-GSPT2, luciferase reporter in HEK293T cells; conditions: dose-response, EPO-stimulated, 24 hours compound treatment
T2 construct: expressed in transfected cells; host or cells: HEK293T
From the text: (§1) In order to identify ligand-induced CRBN substrates, or neosubstrates, here we use a derivative of the MAPPIT assay, applying the procedure described in Lemmens, et al. “MAPPIT, a mammalian two-hybrid method for in-cell detection of protein-protein interactions,” Methods Mol Biol. 2015; 1278:447-55. The traditional MAPPIT assay has been used to monitor protein-protein interactions. A bait protein (protein A) is expressed as a fusion protein in which it is genetically fused to an engineered intracellular receptor domain of the leptin receptor, which is itself fused to the extracellular domain of the erythropoietin (Epo) receptor. […] Activation of STAT3 can be monitored by introduction of a STAT3-responsive reporter gene, including a luciferase-encoding gene or a gene encoding a fluorescent marker such as GFP or some other type of Fluorescent Protein (EGFP, etc.). […]
(§2) In this Example 1, we used a derivative of the MAPPIT assay that we developed specifically for use in determining CRBN-ligand induced protein interactions, i.e. using a specific CRBN bait protein and assaying for ligand-dependent induction of protein complex formation. The CRBN bait protein is expressed as a fusion with the MAPPIT chimeric membrane receptor and the interacting target protein is fused with the cytoplasmic gp130 receptor fragment (gp130-IKZF1(isoform 7), gp130-target X, gp130-GSPT1(domain 2+3) or gp130-GSPT2). […]

CRBN-GSPT1 interaction = molecular target: T3, CRBN-GSPT1 interaction (Homo sapiens, UniProt Q96SW2); assay: MAPPIT-derivative assay, CRBN bait receptor fusion (pSEL-CRBN) with gp130-GSPT1 (domain 2+3), luciferase reporter in HEK293T cells; conditions: dose-response, EPO-stimulated, 24 hours compound treatment
T3 construct: expressed in transfected cells; host or cells: HEK293T
From the text: as §1, §2

[2] = molecular target: T4, FKBP1A (FKBP12)-calcineurin PPP3CA interaction (Homo sapiens, UniProt P62942); assay: MAPPIT-derivative assay, FKBP1A bait receptor fusion (pSEL-FKBP1A) with gp130 fusion of calcineurin PPP3CA catalytic subunit; conditions: dose-response; without or with co-expression of PPP3R2 regulatory subunit
T4 construct: expressed in transfected cells; host or cells: HEK293T
Method: (§3) Luciferase activity was measured 24 hours after test compound treatment using the Luciferase Assay System kit (PROMEGA, Madison, Wis.) with an Ensight plate reader (PERKIN ELMER LIFE SCIENCES, Waltham, Mass.). […] Error bars represent standard deviations. Curves were fit using 4-parameter nonlinear regression in […] PRISM software.

[3] = molecular target: T5, FKBP1A (FKBP12)-MTOR (FRB domain) interaction (Homo sapiens, UniProt P62942); assay: MAPPIT-derivative assay, FKBP1A bait receptor fusion (pSEL-FKBP1A) with gp130-MTOR (FRB domain); conditions: dose-response, HEK293T, EPO-stimulated
T5 construct: expressed in transfected cells; host or cells: HEK293T
Method: as §3
Luciferase activity was measured 24 hours after test compound treatment using the Luciferase Assay System kit (PROMEGA, Madison, Wis.) with an Ensight plate reader (PERKIN ELMER LIFE SCIENCES, Waltham, Mass.). […] Error bars represent standard deviations.

T4 sequence (P62942 whole entry, other chains not shown, the tested form may be a part): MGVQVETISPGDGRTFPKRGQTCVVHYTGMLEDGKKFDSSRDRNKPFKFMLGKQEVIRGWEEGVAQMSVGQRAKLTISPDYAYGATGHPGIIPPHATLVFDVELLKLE
T4 sequence (Q96LZ3 whole entry partner, other chains not shown, the tested form may be a part): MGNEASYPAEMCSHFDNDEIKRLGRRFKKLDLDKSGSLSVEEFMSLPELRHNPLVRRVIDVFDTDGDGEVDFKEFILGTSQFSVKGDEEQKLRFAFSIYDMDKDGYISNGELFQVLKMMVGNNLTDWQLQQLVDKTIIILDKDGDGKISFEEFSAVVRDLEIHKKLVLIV
T5 sequence (P62942 whole entry, the tested form may be a part): as the sequence (P62942 whole entry, other chains not shown, the tested form may be a part) above
T5 sequence (P42345 2012-2144 partner limits assumed): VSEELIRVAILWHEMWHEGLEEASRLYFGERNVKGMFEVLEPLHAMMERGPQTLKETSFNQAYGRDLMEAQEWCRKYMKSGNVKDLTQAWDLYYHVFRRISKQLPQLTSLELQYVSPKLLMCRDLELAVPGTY
T2 sequence (Q96SW2 whole entry, the tested form may be a part): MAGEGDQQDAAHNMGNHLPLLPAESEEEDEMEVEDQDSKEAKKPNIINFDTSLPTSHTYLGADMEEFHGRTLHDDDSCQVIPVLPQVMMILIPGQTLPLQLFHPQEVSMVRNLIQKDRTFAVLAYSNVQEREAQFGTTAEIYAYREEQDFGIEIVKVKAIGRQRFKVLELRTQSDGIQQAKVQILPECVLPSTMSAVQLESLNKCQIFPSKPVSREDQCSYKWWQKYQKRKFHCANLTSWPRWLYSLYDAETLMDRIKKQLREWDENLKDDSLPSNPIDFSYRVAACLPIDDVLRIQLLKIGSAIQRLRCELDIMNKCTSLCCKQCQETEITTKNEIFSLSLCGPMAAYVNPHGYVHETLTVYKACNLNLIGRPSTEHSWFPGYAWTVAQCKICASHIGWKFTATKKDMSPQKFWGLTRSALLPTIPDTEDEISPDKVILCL
T2 sequence (Q8IYD1 whole entry partner, the tested form may be a part): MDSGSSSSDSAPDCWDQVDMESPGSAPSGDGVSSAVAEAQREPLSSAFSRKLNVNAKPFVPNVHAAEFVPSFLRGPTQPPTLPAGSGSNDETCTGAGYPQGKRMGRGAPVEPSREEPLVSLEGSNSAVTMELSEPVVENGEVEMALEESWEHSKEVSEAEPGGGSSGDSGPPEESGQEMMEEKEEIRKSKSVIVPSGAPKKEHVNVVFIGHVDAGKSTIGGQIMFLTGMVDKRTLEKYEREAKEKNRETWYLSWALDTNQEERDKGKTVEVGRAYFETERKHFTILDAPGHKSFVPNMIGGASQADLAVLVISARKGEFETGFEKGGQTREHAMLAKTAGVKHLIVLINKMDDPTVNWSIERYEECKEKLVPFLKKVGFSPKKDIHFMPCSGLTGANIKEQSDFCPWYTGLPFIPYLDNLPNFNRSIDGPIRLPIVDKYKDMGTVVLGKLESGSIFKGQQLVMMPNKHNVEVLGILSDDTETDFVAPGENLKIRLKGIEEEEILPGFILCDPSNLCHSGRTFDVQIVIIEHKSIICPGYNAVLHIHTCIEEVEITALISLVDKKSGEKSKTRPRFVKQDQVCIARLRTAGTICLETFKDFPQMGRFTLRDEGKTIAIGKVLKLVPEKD
T2 sequence (Q16531 whole entry partner, the tested form may be a part): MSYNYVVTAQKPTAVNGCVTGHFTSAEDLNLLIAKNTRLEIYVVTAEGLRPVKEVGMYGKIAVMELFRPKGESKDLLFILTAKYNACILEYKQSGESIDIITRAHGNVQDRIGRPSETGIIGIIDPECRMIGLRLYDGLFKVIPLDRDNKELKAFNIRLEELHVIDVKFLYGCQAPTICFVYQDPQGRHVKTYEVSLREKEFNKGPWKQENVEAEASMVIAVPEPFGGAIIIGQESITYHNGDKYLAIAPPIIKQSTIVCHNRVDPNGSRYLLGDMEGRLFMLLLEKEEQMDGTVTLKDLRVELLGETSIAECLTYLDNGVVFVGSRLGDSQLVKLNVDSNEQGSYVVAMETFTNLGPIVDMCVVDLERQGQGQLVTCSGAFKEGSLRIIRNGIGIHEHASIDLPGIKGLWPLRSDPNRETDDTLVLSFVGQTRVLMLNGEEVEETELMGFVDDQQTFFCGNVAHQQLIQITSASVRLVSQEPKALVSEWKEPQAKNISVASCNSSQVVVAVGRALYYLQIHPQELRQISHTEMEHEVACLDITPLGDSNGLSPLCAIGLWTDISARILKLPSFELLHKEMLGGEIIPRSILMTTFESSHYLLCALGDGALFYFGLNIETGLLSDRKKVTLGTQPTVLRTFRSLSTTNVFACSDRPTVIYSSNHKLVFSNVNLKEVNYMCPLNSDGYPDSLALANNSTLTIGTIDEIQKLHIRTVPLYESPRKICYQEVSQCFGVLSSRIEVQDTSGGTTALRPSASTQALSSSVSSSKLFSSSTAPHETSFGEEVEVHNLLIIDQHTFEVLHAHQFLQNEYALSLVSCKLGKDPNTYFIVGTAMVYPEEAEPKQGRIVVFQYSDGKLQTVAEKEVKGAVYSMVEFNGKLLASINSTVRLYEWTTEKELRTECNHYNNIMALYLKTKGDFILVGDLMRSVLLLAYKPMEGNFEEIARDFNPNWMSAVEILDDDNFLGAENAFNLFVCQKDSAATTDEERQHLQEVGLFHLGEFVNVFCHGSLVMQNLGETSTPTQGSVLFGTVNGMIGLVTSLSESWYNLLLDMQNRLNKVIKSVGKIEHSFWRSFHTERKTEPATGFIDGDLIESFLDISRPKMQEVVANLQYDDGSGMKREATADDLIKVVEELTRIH
T1 sequence (Q96SW2 whole entry): as the sequence (Q96SW2 whole entry, the tested form may be a part) above
T1 sequence (Q16531 whole entry partner): as the sequence (Q16531 whole entry partner, the tested form may be a part) above
T3 sequence (Q96SW2 whole entry, the tested form may be a part): as the sequence (Q96SW2 whole entry, the tested form may be a part) above
T3 sequence (P15170 299-495 partner limits assumed): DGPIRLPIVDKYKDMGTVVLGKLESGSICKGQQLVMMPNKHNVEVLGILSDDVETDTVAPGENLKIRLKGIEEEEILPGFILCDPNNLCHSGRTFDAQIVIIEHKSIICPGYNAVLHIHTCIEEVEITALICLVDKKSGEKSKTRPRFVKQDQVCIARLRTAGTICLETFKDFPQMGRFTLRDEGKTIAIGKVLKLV
T3 sequence (Q16531 whole entry partner, the tested form may be a part): as the sequence (Q16531 whole entry partner, the tested form may be a part) above

SMILES: O=C1CC[C@H](N2Cc3c(OCc4ccc(CN5CCOCC5)cc4)cccc3C2=O)C(=O)N1 [CC-220]
fluorescence reporter signal, ORF proteins recruited to CRBN [1]: significant induction of signal is observed for a number of ORF cDNAs

SMILES: C=CC[C@@H]1/C=C(\C)C[C@H](C)C[C@H](OC)[C@H]2O[C@@](O)(C(=O)C(=O)N3CCCC[C@H]3C(=O)O[C@H](/C(C)=C/[C@@H]3CC[C@@H](O)[C@H](OC)C3)[C@H](C)[C@@H](O)CC1=O)[C@H](C)C[C@@H]2OC [FK506, tacrolimus]
compound-dependent binding of PPP3CA to FKBP1A (reporter signal) [2]: binding of PPP3CA can be monitored

SMILES: CO[C@H]1C[C@@H]2CC[C@@H](C)[C@@](O)(O2)C(=O)C(=O)N2CCCC[C@H]2C(=O)O[C@H]([C@H](C)C[C@@H]2CC[C@@H](OCCO)[C@H](OC)C2)CC(=O)[C@H](C)/C=C(\C)[C@@H](O)[C@@H](OC)C(=O)[C@H](C)C[C@H](C)/C=C/C=C/C=C/1C [everolimus]
compound-induced recruitment of MTOR to FKBP1A (reporter signal) [3]: compound-induced recruitment of MTOR is detected

Second part, the compound after the results:

compound-induced recruitment of GSPT2 to CRBN (reporter signal) (CRBN-GSPT2 interaction): only recruited through CC-885 | compound-induced recruitment of GSPT1 to CRBN (reporter signal) (CRBN-GSPT1 interaction): only recruited through CC-885
SMILES: Cc1ccc(NC(=O)NCc2ccc3c(c2)CN(C2CCC(=O)NC2=O)C3=O)cc1Cl (stereo not drawn) [CC-885]

compound-dependent binding of PPP3CA to FKBP1A (reporter signal) [2]: binding of PPP3CA can be monitored
SMILES: CC[C@@H]1/C=C(\C)C[C@H](C)C[C@H](OC)[C@H]2O[C@@](O)(C(=O)C(=O)N3CCCC[C@H]3C(=O)O[C@H](/C(C)=C/[C@@H]3CC[C@H](Cl)[C@H](OC)C3)[C@H](C)[C@@H](O)CC1=O)[C@H](C)C[C@@H]2OC [pimecrolimus]
